Patent US8980586B2, “Compound and method for producing same” (The Ritsumeikan Trust, priority 2011, dated 2015)
≈ marks a conversion by molar mass, not a printed value.

What was measured:
[1] = Solubility (physicochemical properties); conditions: for Solubility in methanol, dimethyl sulfoxide (DMSO), and chloroform: organic solvents
Phoma sp. = assay: Antimicrobial activity against eukaryotic microorganisms, 96-well microplate (MIC); format: cell-based; conditions: YPD medium, 30° C., 30 hours
Protocol: (§1) The activity against eukaryotic microorganisms was measured with a 96-well microplate in the following manner. Compound (I-1), (I0-B), (I0-C), (I0-D), or (I-2) was suspended in 8% methanol water to prepare a sample suspension having a concentration of 4000, 2000, 1000, 500, 250, 125, 62.5, 32, 16, 8, or 4 μg/mL. Pyceze was diluted with water to prepare Pyceze aqueous solutions having the above concentrations. 50 μl of each of the sample solutions having the above concentrations, 50 μl of sterilized 4-fold concentrated liquid medium, and 100 μl of spore suspension or bacterial suspension of the test organisms prepared beforehand were poured in each well of the 96-well microplate. The experiments were performed in duplicate. […] The test organisms and the culture conditions were as follows.
Phoma sp.: YPD medium (yeast extract: 1%, peptone: 2%, glucose: 2%, pH: 6.5), 30° C., 30 hours; and […]

Saprolegnia parasitica = assay: as above; format: cell-based; conditions: GY medium, 18° C., 24 hours
Protocol: as §1
Saprolegnia parasitica: GY medium (glucose: 1%, yeast extract: 0.25%, pH: 6.5), 18° C., 24 hours;

Bacillus subtilis = assay: Activity against prokaryotic microorganisms, paper disc method on agar plate; format: cell-based; conditions: LB agar, 37° C. overnight, concentration of sample solution
Protocol: (§2) The activity against prokaryotic microorganisms was measured by the paper disc method on an agar plate medium into which test organisms were kneaded. Staphylococcus aureus, Bacillus subtilis, or Escherichia coli was inoculated in 3 mL of sterilized LB medium (glucose: 0.5%, polypeptone: 1%, yeast extract: 0.5%, NaCl: 0.5%, pH: 7.2) in a test tube, and cultured at 37° C. overnight. The pre-culture solution (1%) was inoculated in a sterilized LB agar medium (agar: 1.5%) to prepare an agar assay plate. Compound (I-1) or (I-2) was dissolved in methanol to prepare a sample solution having a concentration of 1000, 500, 250, 125, 62.5, 32, 16, 8, 4, 2, or 1 μg/mL. The sample solution was infiltrated into a paper disc (ADVANTEC, diameter: 8 mm, thick), followed by air-drying. The paper disc was placed on the agar assay plate, and cultured at 37° C. overnight.

Staphylococcus aureus = assay: as above; format: cell-based; conditions: LB agar, 37° C. overnight, concentration of sample solution
Protocol: as §2

Escherichia coli = assay: as above; format: cell-based; conditions: LB agar, 37° C. overnight
Protocol: as §2

[2] = test system: water flea (Daphnia pulex); assay: Water flea swimming ability inhibitory activity test; format: in vivo; conditions: 24 hours incubation, 20° C.; probit method
Protocol: The number of water fleas was adjusted so that each 10 mL of aerated water contained 5 fleas. The water fleas were all 24 hours old after birth or younger. The aerated water was prepared by aerating tap water, which had been filtered by a water cleaner, for at least 24 hours. A sample solution obtained by dissolving Compound (I-1) or (I-2) in methanol, or a Pyceze aqueous solution obtained by diluting Pyceze with water, was added to the water flea breeding water under stirring so that the final concentration of the sample or Pyceze became 100, 10, 1, 0.1, or 0.01 μg/mL. After incubation for 24 hours (20° C., 17 μmol photons/m^2/s, Light:Dark=16:8), the number of water fleas swimming in the breeding water was counted. The water fleas were divided into multiple groups, each consisting of 5 fleas. Using 2 groups each, an experiment was performed with the test liquids having the aforementioned different final concentrations. From the obtained results, IC50 values were calculated according to the probit method using SPSS statistical software.

green algae = conditions: cited from earlier work
water fleas = conditions: cited from earlier work
edible oysters = conditions: cited from earlier work

Row | SMILES | Solubility in methanol, dimethyl sulfoxide (DMSO), and chloroform [1] | Solubility in water [1] | MIC with respect to Phoma sp. (Phoma sp.) | minimum inhibitory concentration (MIC) with respect to Saprolegnia parasitica (Saprolegnia parasitica) | minimum inhibitory concentration with respect to Bacillus subtilis (Bacillus subtilis) | minimum inhibitory concentration with respect to Staphylococcus aureus (Staphylococcus aureus) | inhibition ring formation for Escherichia coli (Escherichia coli) | 50% swimming ability inhibitory concentration with respect to water flea (Daphnia pulex) [2] | EC50 (toxicity) in green algae (green algae) | EC50 (toxicity) in water fleas (water fleas) | EC50 (toxicity) in edible oysters (edible oysters)
1 | CC1OC(OC2C(O)CC(c3ccc4c(c3O)C(=O)C3=C(C4=O)C4(O)C(=O)CC(C)(OC5C=CC(=O)C(C)O5)CC4(O)C=C3)OC2C)C=CC1=O (centres unmarked) [Compound I0-A] | Soluble | Slightly soluble |  |  |  |  |  |  |  |  | 
2 | CC1OC(OC2CCC(OC3C(O)CC(c4ccc5c(c4O)C(=O)C4=C(C5=O)C5(O)C(=O)CC(C)(OC6CCC(=O)C(C)O6)CC5(O)C=C4)OC3C)OC2C)C=CC1=O (centres unmarked) [Compound I0-D] | Soluble | Slightly soluble | 500 µg/mL | 1 µg/mL | 62.5 µg/mL | 62.5 µg/mL | an inhibition ring was not observed |  |  |  | 
3 | CC1OC(OC2CCC(OC3C(O)CC(c4ccc5c(c4O)C(=O)C4=C(C5=O)C5(O)C(=O)CC(C)(OC6C=CC(=O)C(C)O6)CC5(O)C=C4)OC3C)OC2C)C=CC1=O (centres unmarked) [Compound I0-E] | Soluble | Slightly soluble |  |  |  |  |  |  |  |  | 
4 | CC1OC(OC2C(O)CC(c3ccc4c(c3O)C(=O)C3=C(C4=O)C4(O)C(=O)CC(C)(OC5C=CC(=O)C(C)O5)CC4(O)C=C3)OC2C)C=CC1=O (centres unmarked) [Compound I-1] |  |  | 500 µg/mL | 0.0039 µg/mL | 62.5 µg/mL | 31.2 µg/mL | an inhibition ring was not observed | 2.58 µg/mL |  |  | 
5 | CC1OC(OC2CCC(OC3C(O)CC(c4ccc5c(c4O)C(=O)C4=C(C5=O)C5(O)C(=O)CC(C)(OC6C=CC(=O)C(C)O6)CC5(O)C=C4)OC3C)OC2C)C=CC1=O (centres unmarked) [Compound I-2] |  |  | 500 µg/mL | 0.0078 µg/mL | 8.0 µg/mL | 16.0 µg/mL | an inhibition ring was not observed | 4.48 µg/mL |  |  | 
6 | O=[N+]([O-])C(Br)(CO)CO [bronopol] |  |  |  |  |  |  |  |  | 0.0537 µg/mL (≈ 0.269 µM) | 1.4 µg/mL (≈ 7 µM) | 0.77 µg/mL (≈ 3.85 µM)
